In ChEMBL document CHEMBL5625183, “Discovery of a novel dual-target inhibitor of CDK12 and PARP1 that induces synthetic lethality for treatment of triple-negative breast cancer” (Eur J Med Chem, 2023):
Calls of active or inactive are those of the source. No cut-off for these calls is given here.

Legend:
MDA-MB-436 [1] = assay: Antiproliferative activity against human MDA-MB-436 cells assessed as inhibition of cell growth incubated for 24 hrs by MTT assay; format: functional, cell-based; conditions: Homo sapiens, MDA-MB-436, 24 h
[2] = Metabolic stability in human liver microsome assessed as intrinsic clearance in presence of NADPH incubated upto 60 mins by LC-MS/MS analysis; format: ADME; conditions: liver microsomes, read-out: CLH
[3] = MRT (0 to infinity) in Sprague-Dawley rat at 1 mg/kg, iv measured upto 24 hrs by LC-MS/MS analysis; format: ADME, organism-based; conditions: in vivo
[4] = Volume of distribution at steady state in Sprague-Dawley rat at 1 mg/kg, iv measured upto 24 hrs by LC-MS/MS analysis; format: ADME, organism-based; conditions: in vivo, read-out: Vdss
[5] = target: T1, Cyclin-dependent kinase 1 (Homo sapiens, UniProt P06493); assay: Inhibition of CDK1 (unknown origin) at 1 uM relative to control
Target sequence in this assay (P06493 whole entry, looked up): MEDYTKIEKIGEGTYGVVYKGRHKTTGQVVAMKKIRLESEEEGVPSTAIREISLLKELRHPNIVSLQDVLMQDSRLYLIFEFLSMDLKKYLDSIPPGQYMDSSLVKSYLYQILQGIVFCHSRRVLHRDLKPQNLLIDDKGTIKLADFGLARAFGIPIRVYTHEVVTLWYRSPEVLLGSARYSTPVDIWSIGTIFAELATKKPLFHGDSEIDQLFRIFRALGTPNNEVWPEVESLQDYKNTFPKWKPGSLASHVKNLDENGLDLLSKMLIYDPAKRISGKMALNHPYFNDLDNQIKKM

[6] = target: Cyclin-dependent kinase 5 (Homo sapiens, UniProt Q00535); assay: Inhibition of CDK5 (unknown origin) at 1 uM relative to control
Cyclin-dependent kinase 5, sequence (Q00535 whole entry, looked up): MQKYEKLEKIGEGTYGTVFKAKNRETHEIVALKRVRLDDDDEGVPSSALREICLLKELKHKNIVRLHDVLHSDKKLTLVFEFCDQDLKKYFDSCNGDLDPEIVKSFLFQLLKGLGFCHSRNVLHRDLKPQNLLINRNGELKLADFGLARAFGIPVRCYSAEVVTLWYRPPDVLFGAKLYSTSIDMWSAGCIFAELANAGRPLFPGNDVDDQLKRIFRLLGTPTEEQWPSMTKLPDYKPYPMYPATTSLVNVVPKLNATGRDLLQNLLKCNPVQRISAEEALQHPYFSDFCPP

[7] = target: T2, Dual specificity tyrosine-phosphorylation-regulated kinase 2 (Homo sapiens) (UniProt Q92630); assay: Inhibition of DYRK2 (unknown origin) at 1 uM relative to control
T2 sequence (whole entry): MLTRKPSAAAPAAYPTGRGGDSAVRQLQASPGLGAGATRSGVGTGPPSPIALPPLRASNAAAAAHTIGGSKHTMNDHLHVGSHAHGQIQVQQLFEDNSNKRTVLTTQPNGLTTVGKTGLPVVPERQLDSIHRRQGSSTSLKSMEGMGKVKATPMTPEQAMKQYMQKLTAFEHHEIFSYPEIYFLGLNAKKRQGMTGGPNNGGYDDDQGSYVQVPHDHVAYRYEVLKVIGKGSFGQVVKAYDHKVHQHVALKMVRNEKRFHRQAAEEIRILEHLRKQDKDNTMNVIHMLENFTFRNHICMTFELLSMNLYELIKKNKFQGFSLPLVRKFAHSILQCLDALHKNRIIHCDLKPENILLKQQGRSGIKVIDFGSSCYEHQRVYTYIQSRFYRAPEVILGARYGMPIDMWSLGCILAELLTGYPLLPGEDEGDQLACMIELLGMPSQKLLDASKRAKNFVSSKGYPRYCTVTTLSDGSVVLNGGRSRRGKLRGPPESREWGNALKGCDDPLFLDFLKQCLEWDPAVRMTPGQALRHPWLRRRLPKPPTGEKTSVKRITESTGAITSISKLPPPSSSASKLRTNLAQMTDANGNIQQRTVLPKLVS

[8] = target: T1, Cyclin-dependent kinase 1; assay: Inhibition of CDK1 (unknown origin)
Target sequence in this assay (P06493 whole entry): as the sequence (P06493 whole entry, looked up) above

[9] = target: T3, Cyclin-dependent kinase 12 (Homo sapiens, UniProt Q9NYV4); assay: Inhibition of CDK12 in human MDA-MB-436 cells assessed as effect on Pol II CTD at ser5 residue phosphorylation incubated for 24 hrs; format: cell-based; conditions: dose 5-20 µM
T3 sequence (Q9NYV4 whole entry, looked up): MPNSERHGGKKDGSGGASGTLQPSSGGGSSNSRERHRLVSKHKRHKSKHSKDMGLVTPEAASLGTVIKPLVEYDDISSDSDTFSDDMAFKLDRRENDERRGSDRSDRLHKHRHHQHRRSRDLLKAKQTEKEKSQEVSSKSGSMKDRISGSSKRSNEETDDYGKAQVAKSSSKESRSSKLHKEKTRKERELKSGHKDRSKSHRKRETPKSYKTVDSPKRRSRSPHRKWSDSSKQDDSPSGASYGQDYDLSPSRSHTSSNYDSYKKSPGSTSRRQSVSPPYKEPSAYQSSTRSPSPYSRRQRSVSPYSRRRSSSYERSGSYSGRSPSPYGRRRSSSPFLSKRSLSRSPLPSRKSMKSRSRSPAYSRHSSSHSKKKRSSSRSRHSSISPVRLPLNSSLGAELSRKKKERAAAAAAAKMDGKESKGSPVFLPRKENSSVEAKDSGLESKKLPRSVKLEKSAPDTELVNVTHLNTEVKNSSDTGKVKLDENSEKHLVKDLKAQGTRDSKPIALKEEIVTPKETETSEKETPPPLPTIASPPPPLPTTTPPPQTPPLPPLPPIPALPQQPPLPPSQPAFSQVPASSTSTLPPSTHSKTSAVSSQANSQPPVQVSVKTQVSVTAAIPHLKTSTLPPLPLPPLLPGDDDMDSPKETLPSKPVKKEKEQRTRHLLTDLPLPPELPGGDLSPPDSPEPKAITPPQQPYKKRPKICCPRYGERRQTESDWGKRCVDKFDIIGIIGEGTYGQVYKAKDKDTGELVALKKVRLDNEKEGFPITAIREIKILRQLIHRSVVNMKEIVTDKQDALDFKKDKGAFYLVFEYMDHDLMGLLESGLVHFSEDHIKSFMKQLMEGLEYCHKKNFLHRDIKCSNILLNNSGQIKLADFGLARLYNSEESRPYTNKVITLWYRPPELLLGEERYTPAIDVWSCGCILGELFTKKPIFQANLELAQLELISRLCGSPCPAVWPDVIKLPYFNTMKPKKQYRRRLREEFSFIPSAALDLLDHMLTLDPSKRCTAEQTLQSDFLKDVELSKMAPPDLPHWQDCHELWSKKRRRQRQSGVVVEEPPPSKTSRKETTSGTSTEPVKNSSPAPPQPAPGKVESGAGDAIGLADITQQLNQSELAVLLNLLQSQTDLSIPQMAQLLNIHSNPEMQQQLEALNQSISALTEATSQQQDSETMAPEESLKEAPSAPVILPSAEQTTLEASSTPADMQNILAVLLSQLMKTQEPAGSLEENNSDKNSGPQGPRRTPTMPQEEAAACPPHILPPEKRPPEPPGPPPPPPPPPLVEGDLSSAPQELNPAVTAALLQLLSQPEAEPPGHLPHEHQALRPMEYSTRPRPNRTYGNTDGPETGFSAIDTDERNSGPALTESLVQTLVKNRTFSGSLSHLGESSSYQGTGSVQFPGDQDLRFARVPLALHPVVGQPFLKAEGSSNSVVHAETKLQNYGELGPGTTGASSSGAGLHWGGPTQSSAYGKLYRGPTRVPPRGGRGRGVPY

[10] = target: T3, Cyclin-dependent kinase 12; assay: Binding affinity to CDK12 in human MDA-MB-436 cells assessed as increase in protein thermal stabilization at 10 uM incubated for 6 hrs by CETSA based Western blot analysis; format: cell-based
[11] = target: Poly [ADP-ribose] polymerase 1 (Homo sapiens, UniProt P09874); assay: Binding affinity to PARP1 in human MDA-MB-231 cells assessed as increase in protein thermal stabilization at 10 uM incubated for 6 hrs by CETSA based Western blot analysis; format: cell-based
Poly [ADP-ribose] polymerase 1, sequence (P09874 whole entry): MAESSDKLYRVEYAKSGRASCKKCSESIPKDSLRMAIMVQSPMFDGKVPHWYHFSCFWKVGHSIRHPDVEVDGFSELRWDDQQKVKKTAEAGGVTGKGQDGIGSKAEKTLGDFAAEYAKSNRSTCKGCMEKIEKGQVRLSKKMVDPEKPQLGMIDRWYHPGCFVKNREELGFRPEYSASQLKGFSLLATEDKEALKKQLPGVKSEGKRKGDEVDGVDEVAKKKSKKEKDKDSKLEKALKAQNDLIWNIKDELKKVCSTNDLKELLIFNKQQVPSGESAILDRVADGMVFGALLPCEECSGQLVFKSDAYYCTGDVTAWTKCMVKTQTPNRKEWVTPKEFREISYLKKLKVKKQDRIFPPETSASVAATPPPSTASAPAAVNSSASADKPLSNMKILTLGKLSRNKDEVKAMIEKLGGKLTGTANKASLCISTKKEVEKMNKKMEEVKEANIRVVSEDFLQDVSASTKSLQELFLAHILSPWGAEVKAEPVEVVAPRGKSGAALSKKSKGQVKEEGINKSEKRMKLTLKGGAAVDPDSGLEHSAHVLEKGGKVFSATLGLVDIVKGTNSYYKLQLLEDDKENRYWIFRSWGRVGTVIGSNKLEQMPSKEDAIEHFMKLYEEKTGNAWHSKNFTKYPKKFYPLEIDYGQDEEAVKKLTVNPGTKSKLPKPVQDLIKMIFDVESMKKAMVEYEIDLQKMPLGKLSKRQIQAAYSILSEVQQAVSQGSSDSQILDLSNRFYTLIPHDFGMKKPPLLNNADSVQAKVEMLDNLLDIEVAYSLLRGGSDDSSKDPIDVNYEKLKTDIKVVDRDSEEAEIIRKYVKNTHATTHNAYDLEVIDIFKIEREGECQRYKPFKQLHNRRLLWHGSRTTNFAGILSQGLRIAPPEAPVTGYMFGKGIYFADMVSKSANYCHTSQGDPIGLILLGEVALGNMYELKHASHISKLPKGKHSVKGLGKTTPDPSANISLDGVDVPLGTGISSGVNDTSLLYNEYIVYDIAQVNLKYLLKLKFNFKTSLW

MDA-MB-231 [12] = assay: Antiproliferative activity against human MDA-MB-231 cells transfected with wild type PARP1 and CDK12 M816A mutant incubated for 24 hrs by MTT assay; format: functional, cell-based
MDA-MB-231 [13] = assay: Induction of […] in human MDA-MB-231 cells assessed as increase in gamma-H2AX foci formation at 10 uM incubated for 24 hrs by confocal laser scanning microscopic analysis; format: functional, cell-based
MDA-MB-231 [14] = assay: […] DNA repair in human MDA-MB-231 cells assessed as decrease in RAD51 level at 10 uM incubated for 24 hrs by confocal laser scanning microscopic analysis; format: functional, cell-based
MDA-MB-231 [15] = assay: Induction of cell cycle arrest in human MDA-MB-231 cells assessed as accumulation of cells at G1 phase at 10 uM measured after 24 hrs by PI staining based cytometry analysis (reference value: 68.55%); format: functional
MDA-MB-231 [16] = assay: Induction of cell cycle arrest in human MDA-MB-231 cells assessed as accumulation of cells at G2 phase at 10 uM measured after 24 hrs by PI staining based cytometry analysis (reference value: 8.44 %); format: functional
MDA-MB-231 [17] = assay: Induction of cell cycle arrest in human MDA-MB-231 cells assessed as accumulation of cells at G1 phase at 20 uM measured after 24 hrs by PI staining based cytometry analysis (reference value: 68.55%); format: functional
MDA-MB-231 [18] = assay: Induction of cell cycle arrest in human MDA-MB-231 cells assessed as accumulation of cells at S phase at 20 uM measured after 24 hrs by PI staining based cytometry analysis (reference value: 23.01 %); format: functional
MDA-MB-436 [19] = assay: Induction of cell cycle arrest in human MDA-MB-436 cells assessed as accumulation of cells at G1 phase at 10 uM measured after 24 hrs by PI staining based cytometry analysis (reference value: 72.04%); format: functional
MDA-MB-436 [20] = assay: Induction of cell cycle arrest in human MDA-MB-436 cells assessed as accumulation of cells at S phase at 10 uM measured after 24 hrs by PI staining based cytometry analysis (reference value: 25.43%); format: functional
MDA-MB-436 [21] = assay: Induction of cell cycle arrest in human MDA-MB-436 cells assessed as accumulation of cells at G2 phase at 20 uM measured after 24 hrs by PI staining based cytometry analysis (reference value: 2.54%); format: functional
MCF-10A = assay: Cytotoxicity against human MCF-10A cells assessed reduction in cell viability incubated for 24 hrs by MTT assay; format: toxicity, cell-based
MDA-MB-468 [22] = assay: Inhibition of cell migration in human MDA-MB-468 cells assessed as wound closure at 10 uM incubated for 24 hrs by wound healing assay; format: functional, cell-based
MDA-MB-468 [23] = assay: Inhibition of cell migration in human MDA-MB-468 cells at 10 uM incubated for 24 hrs by transwell assay; format: functional, cell-based
MDA-MB-231 [24] = assay: Inhibition of cell migration in human MDA-MB-231 cells assessed as upregulation of E-cadherin level by measuring fluorescence intensity at 10 uM incubated for 24 hrs by confocal microscopic analysis; format: functional, cell-based
MDA-MB-468 [25] = assay: Inhibition of cell migration in human MDA-MB-468 cells assessed as upregulation of E-cadherin level by measuring fluorescence intensity at 10 uM incubated for 24 hrs by confocal microscopic analysis; format: functional, cell-based
[26] = Toxicity in BALB/c mouse xenografted with human MDA-MB-231 cells assessed as morphological changes in liver at 20 to 80 mg/kg, ip administered once daily for 16 days by H and E staining based analysis; format: organism-based; conditions: in vivo, 384 h, dose 20-80 mg/kg, time 16 day
Mus musculus = assay: In-vivo inhibition of CDK12-PARP1 in BALB/c mouse assessed as downregulation of CTD at Ser2 residue expression in tumor at 20 to 80 mg/kg, ip administered once daily for 16 days by Western blot analysis; format: functional, organism-based; conditions: dose 20-80 mg/kg, time 16.0 day

NC(=O)c1cccc2[nH]c(NC(=O)c3cccc(C(=O)N4CCC(Nc5ncc(I)cn5)CC4)c3)nc12
IC50 (MDA-MB-436 [1]): 9 µM
CLint scaled [2]: 7.61 mL/min/kg
MRT inf [3]: 1.87 h
Vd [4]: 1.39 L/kg
inhibition [5]: > 60%
inhibition [6]: > 60%
inhibition [7]: > 60%
IC50 [8]: 0.517 µM
inhibition [9]: Dose-Dependent Effect
Activity [10]: Active
Activity [11]: Active
Activity (MDA-MB-231 [12]): Active
Activity (MDA-MB-231 [13]): Active
Activity (MDA-MB-231 [14]): Active
Activity (MDA-MB-231 [15]): 61.71%
Activity (MDA-MB-231 [16]): 20.35%
Activity (MDA-MB-231 [17]): 59.26%
Activity (MDA-MB-231 [18]): 17.32%
Activity (MDA-MB-436 [19]): 66.94%
Activity (MDA-MB-436 [20]): 25.71%
Activity (MDA-MB-436 [21]): 15.05%
Activity (MCF-10A): Non-Toxic
inhibition (MDA-MB-468 [22]): Active
inhibition (MDA-MB-468 [23]): Active
inhibition (MDA-MB-231 [24]): Active
inhibition (MDA-MB-468 [25]): Active
Activity [26]: Non-Toxic
inhibition (Mus musculus): Active
